# Test results reported in patent publication US6221865A, “Inhibitors of protein isoprenyl transferases” (priority 1998, dated 2001).
# Structures can show the parent of a compound that is named as a salt.
# Target: T1, protein farnesyltransferase (Rattus norvegicus, UniProt Q02293+Q04631)
# T1 construct: The enzyme is purified according to Reiss, Y., et al., Cell, 62: 81-88 (1990), utilizing steps one through three; from tissue; host or cells: rat brain
# Assay: Inhibition of farnesyltransferase (scintillation proximity assay, rat brain enzyme, biotin-K Ras B fragment substrate)
# Assay type: biochemical
# Conditions: 1 × 10^-5 M (Table 1)
# Summary of the method: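 Enzyme from rat brain, partly purified (steps one to three), assayed by SPA kit using 0.1 mM final biotin-K Ras B peptide as prenyl acceptor rather than biotin-lamin. Activity given as percent inhibition.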
# T1 sequence (Q02293 whole entry, one chain of several): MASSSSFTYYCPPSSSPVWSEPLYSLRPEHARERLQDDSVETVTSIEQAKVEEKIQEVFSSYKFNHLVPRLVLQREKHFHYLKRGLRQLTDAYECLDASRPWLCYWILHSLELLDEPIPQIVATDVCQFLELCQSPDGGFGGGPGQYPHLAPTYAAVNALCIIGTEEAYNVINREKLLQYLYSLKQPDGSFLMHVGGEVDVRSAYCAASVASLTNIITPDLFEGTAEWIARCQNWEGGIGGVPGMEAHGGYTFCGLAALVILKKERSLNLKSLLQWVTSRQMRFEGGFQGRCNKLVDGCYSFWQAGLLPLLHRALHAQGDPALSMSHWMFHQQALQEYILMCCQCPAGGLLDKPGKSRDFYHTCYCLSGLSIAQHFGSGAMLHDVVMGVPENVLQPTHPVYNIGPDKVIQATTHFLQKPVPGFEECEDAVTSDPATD
row,Compound,% inhibition of farnesyltransferase at 1 × 10^-5 M [%]
1,COc1cc2c(cc1OC)C(CNCc1ccc(C(=O)N[C@@H](CCSC)C(=O)O)c(-c3ccccc3)c1)=CC(C1CCCCC1)C2 (stereo partly drawn) [Example 659],55
2,CSCC[C@H](NC(=O)c1ccc(CNCCN2CCCCC2)cc1-c1ccccc1)C(=O)O [Example 366],83
3,CSCC[C@H](NC(=O)c1ccc(CNCCN2CCOCC2)cc1-c1ccccc1)C(=O)O [Example 365],97
4,CSCC[C@H](NC(=O)c1ccc(CNc2cc(C(=O)O)cc(C(=O)O)c2)cc1-c1ccccc1)C(=O)O [Example 710],45
5,CSCC[C@H](NC(=O)c1ccc(CNc2ccc3ncccc3c2)cc1-c1ccccc1)C(=O)O [Example 708],76
6,CSCC[C@H](NC(=O)c1ccc(CNc2cc(C)on2)cc1-c1ccccc1)C(=O)O [Example 372],69

# Same assay, conditions: 1 × 10^-6 M (Table 2)
row,Compound,% inhibition of farnesyltransferase at 1 × 10^-6 M [%]
1,CSCC[C@H](NC(=O)c1ccc(COCCc2ccccc2)cc1-c1ccccc1C)C(=O)[O-].[Li+] [Example 587],97
2,CSCC[C@H](NC(=O)c1ccc(CNc2cccc(C(N)=O)c2)cc1-c1ccccc1)C(=O)O [Example 682],31
3,CSCC[C@H](NC(=O)c1ccc(CNCC(O)c2cccc(O)c2)cc1-c1ccccc1)C(=O)O (stereo partly drawn) [Example 661],45
4,CSCC[C@H](NC(=O)c1ccc(CNc2ccc(N3CCCCC3)cc2)cc1-c1ccccc1C)C(=O)O [Example 862],95
5,CSCC[C@H](NC(=O)c1ccc(CN(C(CC2CCCCC2)CC2CCCCC2)S(=O)(=O)c2ccccc2)cc1-c1ccccc1C)C(=O)O [Example 911],65
6,CCSC[C@H](CC1CCCCC1)NCc1ccc(C(=O)N(C)[C@@H](CCSC)C(=O)O)c(-c2ccccc2C)c1 [Example 765],76
7,CSCC[C@H](NC(=O)c1ccc(COCc2ccccc2)cc1-c1ccccc1C)C(=O)NS(=O)(=O)c1ccc(C)cc1 [Example 582],99
8,CCOC(=O)N1CCC(NCc2ccc(C(=O)N[C@@H](CCSC)C(=O)[O-])c(-c3ccccc3C)c2)CC1.[Li+] [Example 806],72
9,CSCC[C@H](NC(=O)c1ccc(CNc2ccc(C(O)(C(F)(F)F)C(F)(F)F)cc2)cc1-c1ccccc1)C(=O)O [Example 693],53
10,CSCC[C@H](NC(=O)c1ccc(CSCc2ccc(C)cc2)cc1-c1ccccc1C)C(=O)[O-].[Li+] [Example 556],99
11,CSCC[C@H](NC(=O)c1ccc(COCCC23CC4CC(CC(C4)C2)C3)cc1-c1ccccc1C)C(=O)O [Example 404],98
12,CSCC[C@H](NC(=O)c1ccc(CNCCS)cc1-c1ccccc1)C(=O)O [Example 626],61
13,CSCC[C@H](NC(=O)c1ccc(CN[C@H](CO)CC2CCCCC2)cc1-c1ccccc1C)C(=O)O [Example 617],99
14,CSCC[C@H](NC(=O)c1ccc(CN(CC23CC4CC(CC(C4)C2)C3)c2ccccc2)cc1-c1ccccc1C)C(=O)O [Example 510],84
15,CSCC[C@H](NC(=O)c1ccc(OCCOC2CCCCC2)cc1-c1ccccc1C)C(=O)[O-].[Li+] [Example 565],94
16,CSCC[C@H](NC(=O)c1ccc(NC(=O)[C@@H](N)COCc2ccccc2)cc1-c1ccccc1)C(=O)O [Example 503],57
17,CSCC[C@H](NC(=O)c1ccc(CN(Cc2ccccc2)c2ccccc2Cl)cc1-c1ccccc1C)C(=O)O [Example 846],85

# Same assay, conditions: 1 × 10^-7 M (Table 3)
row,Compound,% inhibition of farnesyltransferase at 1 × 10^-7 M [%]
1,CSCC[C@H](NC(=O)c1ccc(COCc2cnc(-c3ccc(Cl)cc3)o2)cc1-c1ccccc1C)C(=O)[O-].[Li+] [Example 894],89
2,CCSC[C@H](CC1CCCCC1)N(Cc1ccc(C(=O)N[C@@H](CCSC)C(=O)O)c(-c2ccccc2C)c1)S(=O)(=O)c1ccccc1 [Example 951],71
3,CSCC[C@H](NC(=O)c1ccc(NC[C@@H]2C[C@H](S)CN2)cc1-c1ccccc1)C(=O)O [Example 959],> 50
4,CSCC[C@H](NC(=O)c1ccc(NC(=O)CN)cc1-c1ccccc1)C(=O)O [Example 748],56
5,CSCC[C@H](NC(=O)c1ccc(COCC2CCCCC2)cc1-c1ccccc1C)C(=O)[O-].[Li+] [Example 585],96
6,CSCC[C@H](NC(=O)c1ccc(CSc2nnc(N)s2)cc1-c1ccccc1C)C(=O)O [Example 734],49
7,CSCC[C@H](NC(=O)c1ccc(COCc2cccc3ccccc23)cc1-c1ccccc1C)C(=O)[O-].[Li+] [Example 584],96
8,CSCC[C@H](NC(=O)c1ccc(CSc2ccc3ccccc3c2)cc1-c1ccccc1C)C(=O)O [Example 551],93
9,CSCC[C@H](NC(=O)c1ccc(CSc2nc(C)cc(C)n2)cc1-c1ccccc1C)C(=O)O [Example 743],51
10,CSCC[C@H](NC(=O)c1ccc(COCCc2ccc(-c3ccc(F)cc3)o2)cc1-c1ccccc1C)C(=O)[O-].[Li+] [Example 535],89
11,CSCC[C@H](NC(=O)c1ccc(COCc2cnc(-c3ccc(F)cc3)s2)cc1-c1ccccc1C)C(=O)O [Example 900],95
12,CSCC[C@H](NC(=O)c1ccc(COCc2cccc(C)c2)cc1-c1ccccc1C)C(=O)[O-].[Li+] [Example 578],90
13,CSCC[C@H](NC(=O)c1ccc(CN(Cc2ccc(Cl)cc2)c2ccccc2)cc1-c1ccccc1C)C(=O)O [Example 781],91

# Same assay, conditions: 1 × 10^-8 M (Table 4)
row,Compound,% inhibition of farnesyltransferase at 1 × 10^-8 M [%]
1,CSCC[C@H](NC(=O)c1ccc(COCc2cnc(-c3cccc(F)c3)s2)cc1-c1ccccc1C)C(=O)[O-].[Li+] [Example 898],82
2,CSCC[C@H](NC(=O)c1ccc(CSCc2ccccc2)cc1-c1ccccc1C)C(=O)NS(=O)(=O)c1ccc(C)cc1 [Example 586],90
3,CSCC[C@H](NC(=O)c1ccc(CN(CCC2CCCCC2)C2CC2)cc1-c1ccccc1C)C(=O)O [Example 880],95
4,CSCC[C@H](NC(=O)c1ccc(COCc2oc(-c3ccc(Cl)cc3)c(Cl)c2Cl)cc1-c1ccccc1C)C(=O)[O-].[Li+] [Example 829],92
5,CCCCC(CCCC)OCc1ccc(C(=O)N[C@@H](CCSC)C(=O)[O-])c(-c2ccccc2C)c1.[Li+] [Example 942],58
6,CSCC[C@H](NC(=O)c1ccc(NC[C@H]2NCC[C@H]2S)cc1-c1ccccc1)C(=O)O [Example 960],> 50
7,CSCC[C@H](NC(=O)c1ccc(COCc2ccc(-c3ccc(C(C)C)cc3)o2)cc1-c1ccccc1C)C(=O)[O-].[Li+] [Example 820],66
8,CSCC[C@H](NC(=O)c1ccc(COCc2ccc(-c3ccc(N(C)C)cc3)o2)cc1-c1ccccc1C)C(=O)O [Example 821],75

# Same assay, conditions: read-out: % inhibition at 0.1 μM (*); Table 6, * = 0.1 μM (footnote); title prints 0.1 mM
row,Compound,inhibition at 0.1 µM [%]
1,"CSCC[C@H](NC(=O)c1ccc(/C=C/c2ccc(Oc3ccc(Cl)cc3)cc2)cc1-c1ccccc1C)C(=O)O [Example 1016, N-[4-(2-(4-(4-chlorophenoxy)phenyl)ethen-1-yl)-2-(2-methylphenyl)benzoyl]methionine lithium salt]",92
2,"CSCC[C@H](NC(=O)c1ccc(Cc2nnn(Cc3ccccc3)n2)cc1-c1ccccc1C)C(=O)O [Example 1101, N-[4-(2-benzyltetrazol-5-ylmethyl)-2-(2-methylphenyl)benzoyl]methionine]",86

# Same assay, conditions: read-out: % inhibition of farnesyltransferase at 1 × 10^-6 M; 1 × 10^-6 M (Table 2)
row,Compound,inhibition at 1 µM [%]
1,"CSCC[C@H](NC(=O)c1ccc(-c2ccc(-c3ccccc3)cc2)cc1-c1ccccc1C)C(=O)O [Example 788, N-[4-(4-phenylphenyl)-2-(2-methylphenyl)benzoyl]methionine lithium salt]",44
2,CSCC[C@H](NC(=O)c1ccc(CN(C(C)C)C2(Cc3ccccc3)CCC2)cc1-c1ccccc1C)C(=O)O [Example 331],98
3,Cc1ccccc1-c1cc(CN(C2CC2)C2(CC3CCCCC3)CCCC2)ccc1C(=O)N[C@@H](CCS(C)(=O)=O)C(=O)O [Example 346],98
4,CCCCON(CCC1CCCCC1)Cc1ccc(C(=O)N[C@@H](CCS(C)(=O)=O)C(=O)O)c(-c2ccccc2C)c1 [Example 298],43
5,"CSCC[C@H](NC(=O)c1ccc(/C=C/c2cncnc2)cc1-c1ccccc1C)C(=O)O [Example 494, N-[4-(2-pyrimidin-5-ylethen-1-yl)-2-(2-methylphenyl)benzoyl]methionine lithium salt]",96
6,Cc1ccccc1-c1cc(CN(C2CC2)C(C)(C)CC2CCCCC2)ccc1C(=O)N[C@@H](CCS(C)(=O)=O)C(=O)O [Example 320],93
7,CSCC[C@H](NC(=O)c1ccc(CN(C2CC2)C2(CC3CCCCC3)CC2)cc1-c1ccccc1C)C(=O)O [Example 324],98

# Same assay, conditions: read-out: % inhibition of farnesyltransferase at 1 × 10^-8 M; 1 × 10^-8 M (Table 4)
row,Compound,inhibition at 0.01 µM [%]
1,"CSCC[C@H](NC(=O)c1ccc(CN2CCC[C@H]2COCC2CCCCC2)cc1-c1ccccc1C)C(=O)O [Example 992, N-[4-(2-cyclohexylmethoxymethylpyrrolidin-1-ylmethyl)-2-(2-methylphenyl)benzoyl]methionine]",93
